Where two headings read alike, the source gives them in different places.
Columns and labels:
TbAQP2 [1] = target: T1, TbAQP2 (Trypanosoma brucei brucei, UniProt Q6ZXT3); details: not told, pH 7.2
T1 sequence (Q6ZXT3 1-312): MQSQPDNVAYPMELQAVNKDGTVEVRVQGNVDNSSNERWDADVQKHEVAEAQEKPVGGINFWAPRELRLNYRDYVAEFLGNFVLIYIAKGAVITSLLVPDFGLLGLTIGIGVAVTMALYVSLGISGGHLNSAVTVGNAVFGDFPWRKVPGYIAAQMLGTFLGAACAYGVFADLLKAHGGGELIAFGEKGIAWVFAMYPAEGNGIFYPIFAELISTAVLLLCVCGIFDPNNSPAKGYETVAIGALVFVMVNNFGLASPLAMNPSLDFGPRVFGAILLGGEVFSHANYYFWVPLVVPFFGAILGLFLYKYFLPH

[2] = cited from earlier work
TbAQP2 [3] = target: T1, TbAQP2
TbAQP2 [4] = target: T1, TbAQP2; assay: cell-based
TbAQP2 [5] = target: T1, TbAQP2; details: pH 5.5
TbAQP3 [6] = target: T2, TbAQP3 (Trypanosoma brucei brucei, UniProt Q6ZXT2)
T2 sequence (Q6ZXT2 whole entry): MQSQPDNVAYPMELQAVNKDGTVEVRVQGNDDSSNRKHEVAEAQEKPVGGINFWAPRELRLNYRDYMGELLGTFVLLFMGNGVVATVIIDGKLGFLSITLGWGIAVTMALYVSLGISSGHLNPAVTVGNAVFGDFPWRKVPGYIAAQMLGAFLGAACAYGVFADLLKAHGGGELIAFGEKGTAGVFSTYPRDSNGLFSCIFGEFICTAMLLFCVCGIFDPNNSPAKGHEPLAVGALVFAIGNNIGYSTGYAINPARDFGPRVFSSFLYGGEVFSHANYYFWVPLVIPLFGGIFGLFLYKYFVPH

other AQPs = details: covalent cysteine-modification; cited from earlier work
[7] = system: T. brucei expressing mutant TbAQP2 (GFPAQP2 L264R); assay: alamarBlue EC50 assay, aqp2-null strain expressing GFP-TbAQP2 Leu264Arg; details: Trypanosoma brucei
Protocol: Bloodstream-form T. brucei, Lister 427, MiTat 1.2, clone 221a and derivatives were maintained as previously described [2]; 2T1 [1] and aqp2 null strains [2] were also described previously. Strains were transfected using a Nucleofector apparatus (Lonza) in conjunction with cytomix and transformants were selected with hygromycin (2.5 μg ml^–1). ^GFPAQP expression was induced by exposing cells to 1 μg ml^–1 tetracycline for 48 h. EC50 assays were carried out using alamarBlue as described [44, 45].

yeast [8] = assay: Phenotypic yeast growth assay, pentamidine susceptibility on YPG (glycerol) media; format: cell-based, Saccharomyces cerevisiae; details: pentamidine isethionate 1 or 10 μg ml–1, compared with non-expressing and TbAQP3 expressing cells
TbAQP3 [9] = target: T2, TbAQP3; details: up to 500 μM pentamidine added 10 min prior to the assay
yeast [10] = details: cited from earlier work
[11] = format: physicochemical; details: prohibits a sufficiently concentrated gradient in the light-scattering assay
Excerpt: Next, we employed a biophysical light-scattering assay for TbAQP2 permeability. We expressed TbAQP2 in a yeast strain that lacks the endogenous aquaglyceroporin (Δfps1), prepared protoplasts, and challenged them by a hypertonic, test solute-containing buffer. In an initial rapid phase, the protoplasts will release water following the outward osmotic gradient and shrink as indicated by an increase in light scattering. In the second slower phase, volume will be regained if the test solute can pass TbAQP2 and enter the protoplasts. […] We used instead two pairs of test solutes, glycerol/3-aminopropane-1,2-diol and urea/formamidine, of which glycerol and urea are established permeants of TbAQP2 [11], whereas the respective partners are bioisosteric nitrogen-derivatives, which are positively charged at neutral pH (Fig 1F). […] Formamidine is too strong a base (pKa 13) to be amenable to deprotonation in aqueous solution. […] The lack of permeability for the charged compounds is not due to molecule size, because formamidine is even smaller than urea. […] We conclude that organic cations fail to traverse the TbAQP2 channel.

[12] = IC50, inhibition of TbAQP2 glycerol permeability

NCC(O)CO (stereo not shown) [3-aminopropane-1,2-diol]
permeability of TbAQP2 for the solute (TbAQP2 [1]): did not pass | pKa [2]: 9.2

COc1ccc(C(=N)N)cc1 [4-methoxy-benzamidine]
inhibition of TbAQP2 (in words) (TbAQP2 [3]): incapable of inhibiting TbAQP2

CCCCCOc1ccc(C(=N)N)cc1 [4-pentoxy-benzamidine]
IC50 (TbAQP2 [4]; [12]): 87 µM

CCCOc1ccc(C(=N)N)cc1 [4-propoxy-benzamidine]
IC50 (TbAQP2 [4]; [12]): 2800 µM | maximal inhibition of TbAQP2 (TbAQP2 [3]): 60%

N [NH4 ^+, ammonium]
NH4+ uptake on TbAQP2 expression (TbAQP2 [5]): neither expression of TbAQP2 nor TbAQP3 enhanced the NH4 ^+ uptake | NH4+ uptake on TbAQP3 expression (TbAQP3 [6]; pH 5.5, NH4+ as sole nitrogen source, versus cells without ammonium transporter): neither expression of TbAQP2 nor TbAQP3 enhanced the NH4 ^+ uptake

[Cl][Au]([Cl])[Cl].c1cnc2c(c1)ccc1cccnc12 [auphen]
IC50 (other AQPs): 0.8 µM

N=CN [formamidine]
permeability of TbAQP2 for the solute (TbAQP2 [1]): did not pass | pKa [2]: 13

OCC(O)CO [glycerol]
permeability of TbAQP2 for the solute (TbAQP2 [1]): showed permeability

CN [methylammonium]
permeability of TbAQP2 for the positively charged compound form (TbAQP2 [5]; not told): impermeable | permeability of TbAQP3 for the positively charged compound form (TbAQP3 [6]; 50 mM methylammonium, pH 5.5, yeast survival): impermeable

N#Cc1ccc(OCCCCCOc2ccc(C(=N)N)cc2)cc1 [nitrile-pentamidine]
IC50 (TbAQP2 [4]; [12]): 0.18 µM

N=C(N)c1ccc(OCCCCCOc2ccc(C(=N)N)cc2)cc1 [pentamidine]
IC50 (TbAQP2 [4]; [12]): 0.13 µM | IC50 (TbAQP2 [4]; IC50, pentamidine inhibition of TbAQP2, pH 2.5): 1.1 µM | IC50 (TbAQP2 [4]; IC50, pentamidine inhibition of TbAQP2, pH 3.5): 0.45 µM | EC50 [7]: 0.103 µM | pentamidine susceptibility of yeast on expression of TbAQP2 (yeast [8]): did not increase the susceptibility | effect on glycerol permeability of TbAQP3 (TbAQP3 [9]): unaffected | cytotoxicity to yeast (yeast [10]): cytotoxic | pKa [2]: 12.1 | solubility [11]: low solubility | block of TbAQP2 glycerol permeability (TbAQP2 [3]; not told): fully blocked | reduced affinity versus pH 7.2 (TbAQP2 [3]; pH 2.5): 8 times | reduced affinity versus pH 7.2 (TbAQP2 [3]; pH 3.5): 3 times

NC(N)=O [urea]
permeability of TbAQP2 for the solute (TbAQP2 [1]): showed permeability

— paper PMC4734766, “Pentamidine Is Not a Permeant but a Nanomolar Inhibitor of the Trypanosoma brucei Aquaglyceroporin-2” (PLoS Pathogens, 2016)
